Assay results: US6214811A, “Acyclovir diester derivatives” (Drug Innovation & Design, Inc., priority 2000, dated 2001)

Key:
[1] = tested on: dermal herpes simplex virus-1 (HSV-1) infection; assay: Dermal HSV-1 infection in guinea pigs, topical treatment (lesion number, lesion area, skin virus titer); format: in vivo, guinea pig (Female Hartley outbred); details: for effectiveness in reducing dermal HSV-1 virus infection compared with acyclovir and phosphotriester prodrugs (in words): dermal HSV-1 infection; for lesion number, lesion area and lesion virus titer (summary in words): guinea pigs with dermal HSV-1 infections, compared to vehicle/placebo
Description: The formulation for Prodrug 1 contained 5% EL-620 EMULPHOR (polyoxyethylated castor oil) (Rhone Poluenc), 5% CARBOPOL (Carboxypolymethylene, sodium salt) (B. F. Goodrich), 10% ethanol and 2% by weight Prodrug 1. The balance of the formulation consisted of water.
EL-620 EMULPHOR and water were mixed and ultrasonicated to give a clear emulsion, to which the ethanol was added. The prodrug was then added, and the mixture was ultrasonicated. The sodium carbopol was then added to the emulsion and mixed until to homogeneity.
The placebo was prepared identically to the pharmaceutical compositions except that the prodrugs were omitted.
The pharmaceutical compositions were stored at room temperature.
Female Hartley outbred guinea pigs, 400 to 450 grams, were obtained from Charles River Breeding Labs, Wilmington, Mass. Animals were anesthetized with 25 mg/kg ketamine and 5 mg/kg xylazine SQ. Hair on the dorsum from the shoulders to the rump was removed with electric clippers followed by two 5-10 minute applications of a chemical depilatory. A grid of four areas was demarcated with a pen on both sides of the spine at levels corresponding to mid back and rump.
Undiluted HSV-1 virus stock (0.035 ml) was applied to each different area and introduced through the skin at well-spaced sites at ten activations of a six-pronged spring-loaded vaccination instrument (Sterneedle, Pan Ray Division, Ormont Drug, Englewood, N.J.). The day of inoculation is Day 0. Approximately 250 mg of drug or placebo was applied to the areas according to the dosing regimen on Days 1, 2 and 3. Eight guinea pigs were used during the experiments allowing eight comparisons between each drug and its placebo.
On Day 4 regrown hair on the dorsum of the guinea pigs was removed with one 3-4 minute application of a chemical depilatory. HSV lesions were counted and Polaroid pictures of the animals' backs were taken. The animals were sacrificed using CO2 gas and the full thickness skin of the back was removed by dissection. The square of the skin from each of the four treatment areas was placed into 15 mls of tissue culture medium with 2% FES in an ice bath. The samples were then homogenized in a stomacher Lab Blender 80 (Tekmar Co.). Debris was pelleted by centrifugation and the supernatants collected and frozen at -70° C. until assay for infectivity by plaque formation in VERO cells.
The mean and standard deviation for number of lesions, total lesion area and lesion virus titer were computed. Paired data (drug/vehicle) were evaluated by the Wilcoxon signed-rank test using percent differences between log10 derivatives of mean lesions severity at drug-treated sites compared to the Vehicle-treated sites.
Prodrug 2 was formulated as described in Example 1. One Hartley guinea pig was inoculated with HSV-1 as described in Example 1. The guinea pig was treated with Prodrug 2 according to the protocol used in Example 1 for Prodrug 1.

pig liver esterase = assay: Incubation with pig liver esterase in phosphate buffered D2O, NMR; format: in vitro ADME
Description: This assay is described in Glazier, WO 91/19721 entitled "Phosphorus Prodrugs" and can be used to determine suitable hydroxyl or amino protecting groups which can be cleaved in vivo. The entire teachings of […] are incorporated herein by reference. It is to be understood that there are other in vitro assays known to one of ordinary skill in the art employing esterases, amidases or enzymes capable of cleaving carbonate, carbamate, ester and amide groups which can also be used to determine suitable protecting groups.

herpes simplex labialis = details: cited from earlier work
[2] = guinea pigs, topical, 2% by weight Prodrug 1 formulation, Days 1, 2 and 3, vs placebo (p<0.01)

Row | SMILES | effectiveness in reducing dermal HSV-1 virus infection compared with acyclovir and phosphotriester prodrugs (in words) [1] | lesion number, lesion area and lesion virus titer (summary in words) [1] | reduction in lesion area [1, 2] [%] | reduction in lesion number [1, 2] [%] | reduction in skin viral titers [1, 2] [%] | degradation by esterase, products by NMR (pig liver esterase) | reduction in lesion number, lesion area and skin viral titers (in words) ([1]; one Hartley guinea pig, formulated as in Example 1, compared with Prodrug 1 in Example 1) | effectiveness of oral acyclovir in cold sores (herpes simplex labialis; oral) | response of cold sores to topical acyclovir (herpes simplex labialis; topical)
1 | COC(=O)CC(OP(=O)(O)OCCOCn1cnc2c(=O)[nH]c(N)nc21)c1ccc(OC(=O)C(C)(C)C)cc1 (centres unmarked) [Prodrug 1, Sodium 2-((9-Guanylyl)methyl)oxy)ethyl 1-(4-((2,2-dimethylpropionyl)oxy)-phenyl)-2-((methoxy)carbonyl)ethyl phosphate] | more Effective in Reducing Dermal HSV-1 Virus Infection than Acyclovir | dramatic reduction in lesion number, in lesion area and in lesion virus titer | 79 | 72 | 93 | degraded to acyclovir monophosphate and p-hydroxycinnamic |  |  | 
2 | COC(=O)CC(OP(=O)(O)OCCOCn1cnc2c(=O)[nH]c(N)nc21)c1ccc(OC(C)=O)cc1 (centres unmarked) [Prodrug 2, sodium 2-((9-guanylyl)methyl)oxy)ethyl-1-(4-acetoxyphenyl)-2-((methoxy)carbonyl)ethyl phosphate] | more Effective in Reducing Dermal HSV-1 Virus Infection than Acyclovir | dramatic reduction in lesion number, in lesion area and in lesion virus titer |  |  |  |  | comparable reduction in lesion number, lesion area and in skin viral titers |  | 
3 | Nc1nc2c(ncn2COCCO)c(=O)[nH]1 [acyclovir] |  |  |  |  |  |  |  | only partially effective | do not respond
